From US10183953B2, “Substituted 2-azabicycles and their use as orexin receptor modulators” (Janssen Pharmaceutica NV, priority 2013, dated 2019)

Assays:
[1] = biological target: human orexin 1 receptor (Homo sapiens (Human), UniProt O43613); assay: Human orexin 1 receptor radioligand binding (competitive, CHO membranes); details: human OX1 receptor binding; averages from between 2-20 runs; read-out: hOX1 Ki
Procedure: (§1) The in vitro affinity of the compounds of the invention for the rat/human orexin 1 and human orexin 2 receptors was determined by competitive radioligand binding using [^3H]
(§2) Data are analyzed using pc-Sandy macro and graphed on Graphpad Prism 5. For analysis, each concentration point is averaged from triplicate values and the averaged values are plotted on Graphpad Prism. The IC50 was determined by applying the following equation (GraphPad Prism 5.0, SanDiego) for one site competition where X=log (concentration) and Y=specific binding. […] Graphpad Prism calculates Ki value from IC50 and the pre-determined Kd values for [^3H]-(1-(5-(2-fluoro-phenyl)-2-methyl-thiazol-4-yl)-1-((S)-2-(5-phenyl-(1,3,4)oxadiazol-2-ylmethyl)-pyrrolidin-1-yl)-methanone) and [3H]-EMPA. […]
(§3) After centrifugation (2K×G, 5 min at 4° C.), the supernatant was aspirated and the pellets frozen and stored at −80° C. […] Total and nonspecific binding was determined in the absence and presence of 10 μM almorexant. […] Plates were dried in 55° C. oven for 60 min, scintillation fluid was added, and the radioactivity was counted on a Topcount (Packard).

[2] = biological target: rat orexin 1 receptor (Rattus norvegicus, UniProt P56718); assay: Rat orexin 1 receptor radioligand binding (competitive, HEK293 membranes); details: rat OX1 receptor binding; averages from between 2-20 runs; read-out: rOX1 Ki
Procedure: as §1, §2, §3

[3] = biological target: human orexin 2 receptor (Homo sapiens (Human), UniProt O43614); assay: Human orexin 2 receptor radioligand binding ([3H]-EMPA, HEK293 membranes); details: human OX2 receptor binding; averages from between 2-20 runs; read-out: hOX2 Ki
Chain of human orexin 2 receptor (O43614 whole entry): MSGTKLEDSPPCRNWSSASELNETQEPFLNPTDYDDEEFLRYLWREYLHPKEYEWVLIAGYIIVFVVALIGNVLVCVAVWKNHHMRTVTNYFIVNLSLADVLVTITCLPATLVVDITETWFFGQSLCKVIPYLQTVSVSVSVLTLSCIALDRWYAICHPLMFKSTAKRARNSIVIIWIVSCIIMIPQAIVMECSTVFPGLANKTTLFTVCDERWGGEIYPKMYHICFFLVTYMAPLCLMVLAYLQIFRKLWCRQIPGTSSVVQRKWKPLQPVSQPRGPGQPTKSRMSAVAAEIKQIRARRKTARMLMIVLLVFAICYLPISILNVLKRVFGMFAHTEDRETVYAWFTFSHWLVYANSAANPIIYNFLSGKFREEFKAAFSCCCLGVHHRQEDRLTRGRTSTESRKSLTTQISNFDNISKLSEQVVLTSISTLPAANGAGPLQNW
Procedure: as §1, §2
HEK293 stably expressing human orexin 2 receptor (Genebank accession number NM_001526) were grown to confluency in DMEM (Hyclone, cat #SH30022), 10% FBS, 1×Pen/Strep, 1× NaPyruvate, 10 mM HEPES, 600 ug/ml G418 media on 150 cm^2 tissue culture plates, washed with 5 mM EDTA in PBS (HyClone Dulbecco's Phosphate Buffered Saline 1× with Calcium and Magnesium, Cat #SH30264.01, hereafter referred to simply as PBS) and scraped into 50 ml tubes. […] Total and nonspecific binding was determined in the absence and presence of 10 μM almorexant. […]

Chain of human orexin 1 receptor (O43613 whole entry): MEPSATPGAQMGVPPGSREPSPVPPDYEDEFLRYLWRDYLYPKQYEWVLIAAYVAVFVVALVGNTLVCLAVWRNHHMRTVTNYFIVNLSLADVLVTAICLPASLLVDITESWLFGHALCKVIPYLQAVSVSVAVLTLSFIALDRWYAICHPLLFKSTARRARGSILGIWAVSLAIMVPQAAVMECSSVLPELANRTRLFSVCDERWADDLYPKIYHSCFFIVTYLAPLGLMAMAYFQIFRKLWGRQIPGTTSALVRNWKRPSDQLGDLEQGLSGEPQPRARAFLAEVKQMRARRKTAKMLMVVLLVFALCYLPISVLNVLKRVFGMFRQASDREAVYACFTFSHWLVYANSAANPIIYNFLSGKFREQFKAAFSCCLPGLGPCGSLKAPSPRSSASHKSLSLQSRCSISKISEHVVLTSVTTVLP

What does the source list for O=C(c1cccc(F)c1-c1ncccn1)N1C[C@@H]2CC[C@H]1[C@H](Nc1cnc(C(F)(F)F)cn1)C2 [Example 80, (3-fluoro-2-(pyrimidin-2-yl)phenyl)((1S,4R,6R)-6-((5-(trifluoromethyl)pyrazin-2-yl)amino)-2-azabicyclo[2.2.2]octan-2-yl)methanone]?
Ki [1]: 7 nM; Ki [2]: 9 nM; Ki [3]: 456 nM
